Key:
[1] = Antiplatelet activity in human platelet rich plasma assessed as inhibition of ADP-induced platelet aggregation at 10 uM relative to control; format: functional
P2Y purinoceptor 1 = P2Y purinoceptor 1 (Homo sapiens, UniProt P47900); test: Displacement of [beta-33P]-2MeS-ADP from human P2Y1 receptor expressed in HEK293 cells after 1 hr by scintillation counting analysis; format: cell-based
[2] = Antiplatelet activity in human platelet rich plasma assessed as inhibition of ADP-induced platelet aggregation; format: functional
[3] = Protein binding in human serum; format: ADME, cell-free; details: read-out: PB
[4] = Clearance in rat at 5 mg/kg, iv; format: ADME, organism-based; parameters: dose 5 mg/kg, route intravenous; details: in vivo
[5] = Oral bioavailability in rat; format: ADME, organism-based; details: in vivo

Sequence of P2Y purinoceptor 1 (P47900 whole entry): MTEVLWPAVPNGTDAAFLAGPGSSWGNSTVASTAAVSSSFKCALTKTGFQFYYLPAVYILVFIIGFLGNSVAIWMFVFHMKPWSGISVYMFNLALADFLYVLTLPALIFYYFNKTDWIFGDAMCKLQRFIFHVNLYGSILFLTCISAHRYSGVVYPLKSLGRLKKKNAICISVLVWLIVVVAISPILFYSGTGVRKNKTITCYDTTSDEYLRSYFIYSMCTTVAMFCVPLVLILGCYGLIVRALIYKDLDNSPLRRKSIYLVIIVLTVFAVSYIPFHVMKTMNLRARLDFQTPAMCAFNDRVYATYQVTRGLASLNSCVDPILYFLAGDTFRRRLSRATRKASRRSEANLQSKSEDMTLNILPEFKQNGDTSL

Ki (P2Y purinoceptor 1) [µM]	IC50 [2] [µM]	fraction unbound [3]	clearance [4] [L/h/kg]	bioavailability [5] [%]	SMILES	inhibition at 10 µM [1] [%]
					CC(C)(C)c1ccccc1Oc1ncccc1Nc1ncc(-c2ccccc2)s1	87
0.012					CCc1nc(Nc2cccnc2Oc2ccccc2C(C)(C)C)sc1-c1ccccc1	78
0.031					CC(C)(C)c1ccccc1Oc1ncccc1Nc1nc(C(C)(C)C)c(-c2ccccc2)s1	86
0.007	12				CC(C)(C)c1ccccc1Oc1ncccc1Nc1nc(C(F)(F)F)c(-c2ccccc2)s1	61
0.207					CC(C)(C)c1ccccc1Oc1ncccc1Nc1nc(C(C)(C)CC(=O)O)c(-c2ccccc2)s1	89
0.186					CN(C)C(=O)c1nc(Nc2cccnc2Oc2ccccc2C(C)(C)C)sc1-c1ccccc1	100
0.011					Cc1sc(Nc2cccnc2Oc2ccccc2C(C)(C)C)nc1C(F)(F)F	96
0.005					CCOC(=O)c1sc(Nc2cccnc2Oc2ccccc2C(C)(C)C)nc1C(F)(F)F	50
0.021					CC(C)(C)c1ccccc1Oc1ncccc1Nc1nc(C(F)(F)F)c(C#N)s1	101
0.006					Cc1noc(-c2sc(Nc3cccnc3Oc3ccccc3C(C)(C)C)nc2C(F)(F)F)n1	56
4.85					CC(C)(C)c1ccccc1Oc1ncccc1Nc1nc(C(F)(F)F)c(C(N)=O)s1	
0.011					Cc1ccccc1-c1sc(Nc2cccnc2Oc2ccccc2C(C)(C)C)nc1C(F)(F)F	54
0.008					Cc1ccc(-c2sc(Nc3cccnc3Oc3ccccc3C(C)(C)C)nc2C(F)(F)F)cc1	32
0.007					CC(C)(C)c1ccccc1Oc1ncccc1Nc1nc(C(F)(F)F)c(-c2ccccc2F)s1	41
0.008					COc1cccc(-c2sc(Nc3cccnc3Oc3ccccc3C(C)(C)C)nc2C(F)(F)F)c1	41
0.008					COc1ccc(-c2sc(Nc3cccnc3Oc3ccccc3C(C)(C)C)nc2C(F)(F)F)cc1	30
0.012					CC(C)(C)c1ccccc1Oc1ncccc1Nc1nc(C(F)(F)F)c(-c2ccc(OC(F)(F)F)cc2)s1	85
0.013					CC(C)(C)c1ccccc1Oc1ncccc1Nc1nc(C(F)(F)F)c(-c2ccc(C#N)cc2)s1	79
0.435					CC(C)(C)c1ccccc1Oc1ncccc1Nc1nc(C(F)(F)F)c(-c2ccccc2O)s1	99
0.195					CC(C)(C)c1ccccc1Oc1ncccc1Nc1nc(C(F)(F)F)c(-c2cccc(O)c2)s1	98
0.012	5.2	0.001	0.402	27	CN(C)CC(C)(C)COc1cccc(-c2sc(Nc3cccnc3Oc3ccccc3C(C)(C)C)nc2C(F)(F)F)c1	17

Reference: ChEMBL document CHEMBL2401677, “2-Aminothiazole based P2Y(1) antagonists as novel antiplatelet agents” (Bioorg Med Chem Lett, 2013)
